# Values of other authors as cited in patent US20250195352A1, “LIPID FORMULATIONS CONTAINING BIOACTIVE FATTY ACIDS AND OTHER BIOACTIVE AGENTS” (Sciadonics, Inc., priority 2022, published 2025).
# Experiments:
# [1] = test system: cultured human skin keratinocytes; conditions: purified SA taken up by cultured human skin keratinocytes; Berger 2002
# PPAR receptors = conditions: unmetabolized SA; Berger 2002
compound,measurement,setting,value
"CCCCCC=CCC=CCCCCC=CCCCC(=O)O [SA, 5,11,14-eicosatrienoic acid]",ARA levels,[1],reduced
same,prostaglandin E2 (PGE2) levels,[1],reduced
same,binding to PPAR receptors,PPAR receptors,does not bind
